Test: Human HepG2 cell viability assay in 384 well format
Assay type: toxicity, cell-based
Parameters: dose 125 nL, time 70.5 hour; cytotoxicity at 70.5 h: concentration not given beside the values
Details: HepG2 cells, read-out: Inhibition

| SMILES | cytotoxicity at 70.5 h [%] |
| --- | --- |
| CCCNC(=O)CSCc1ccc(S(=O)(=O)N(C)C)o1 | -6.98 |
| CC(C)C(c1cccnc1)N(C)C(=O)Cc1ccc(O)cc1 (stereo not drawn) | 0.393 |
| Cc1cnc(CN(C)C2CCN(Cc3nc4c(F)cccc4[nH]3)C2)o1 (stereo not drawn) | 1.64 |
| COCC(O)CN(C)c1ccnc2ccc(Cl)cc12 (stereo not drawn) | 13.9 |
| Cc1noc(C)c1CCC(=O)Nc1ccn(C)n1 | 1.75 |
| Cc1noc(C)c1C(=O)N1CCSc2ccc(Cl)cc21 | 11.5 |
| Cc1cc(C)cc(OCCN(C)Cc2ccc(S(=O)(=O)N(C)C)o2)c1 | 19.6 |
| Cc1cc(C(=O)N2CCCC(c3nncn3C)C2)no1 (stereo not drawn) | -5.95 |
| O=C(Nc1ccccn1)C1CCN(Cc2cc3c(cc2O)OCO3)CC1 | 3.83 |
| CC1CCN(S(=O)(=O)N2Cc3ccccc3C[C@H]2C(N)=O)CC1 | -4.51 |
| CC(=O)N(C)c1nc(Cn2nnnc2C(C)C)cs1 | -6.77 |
| O=C(NCC1CCN(CCc2ccccc2)C1)c1cc(Cl)c[nH]1 (stereo not drawn) | 2.19 |
| CCn1nc(C)cc1C(=O)NCc1nc(C)no1 | -6.53 |
| O=C(NCc1nc2cc(F)ccc2[nH]1)c1ccc[nH]1 | 17.9 |
| CN(CC(F)(F)F)C(=O)CNC(=O)N1CCC(N2CCCC2)C1 (stereo not drawn) | -9.53 |
| CCCc1nnnn1CC(=O)NCc1cccc(C)c1 | -3.35 |
| CCc1cnccc1C(=O)NC1CCN(Cc2ccccc2F)CC1 | -6.35 |
| CC1COCCN1Cc1nc(C(C)(C)C)no1 (stereo not drawn) | -6.43 |
| CCc1nnc(CN(C)CC2CCCCC2)o1 | -0.472 |
| COCC(O)CN(C)c1ccnc2cc(Br)ccc12 (stereo not drawn) | -6.19 |
| Cc1nn(C)cc1CN(C)Cc1cc2c(cc1OC(F)F)OCO2 | -7.7 |
| O=S(=O)(c1ccccc1)N1CCCN(CCCn2ccnc2)CC1 | -10.3 |
| CCC(C)CNc1ccc2oc(COC)nc2c1 (stereo not drawn) | 42.8 |

| SMILES | cytotoxicity at 70.5 h [%] |
| --- | --- |
| NS(=O)(=O)c1ccc(NC(=O)CSc2ccc3c(c2)CCC3)cc1 | -2.39 |
| c1ccc(COC2CCN(c3cncc(-n4cccn4)n3)CC2)cc1 | -9.06 |
| CCNC(=O)N(C)Cc1ccc(SC)c(OC)c1 | -7.42 |
| CC(=O)c1cccc(NC(=O)CN2CCCCC2C2OCCO2)c1 (stereo not drawn) | -1.12 |
| Cn1cnnc1C1CCN(c2cncc(-n3cccn3)n2)CC1 | 1.11 |
| COc1ccc(CNC2CCN(CCc3ccncc3)CC2)cc1O | -6.38 |
| Cc1ccc(C(CNCc2ccncc2)N2CCOCC2)s1 (stereo not drawn) | 18.9 |
| O=C(C1SCCc2sccc21)N1CCN(CCO)CC1 (stereo not drawn) | -2.81 |
| O=C(C1SCCc2sccc21)N1CCC(O)CC1 (stereo not drawn) | 1.7 |
| O=C(CN1CCCCC1C1OCCO1)Nc1ccc(F)c(F)c1 (stereo not drawn) | -2.55 |
| COC(=O)CCNC(=O)C1CC(=O)N(C2CCCC2)C1 (stereo not drawn) | 0.402 |
| CC(C)n1c(C2CCCN(CCS(C)(=O)=O)C2)nc2ccccc21 (stereo not drawn) | -0.395 |
| Cc1ccc(CNC2CCN(CCc3ccncc3)CC2)cc1C | 1.32 |
| CN(CC(=O)NCc1ccccn1)CC1CCCN1c1cccnn1 (stereo not drawn) | 0.56 |
| Cc1ccc(C(CNCc2cnn(C(C)C)c2)N2CCOCC2)s1 (stereo not drawn) | -0.62 |
| COc1ccc(C(=O)N(C)Cc2cccc(C#N)c2)c(OC)c1OC | -5.18 |
| CCCn1nc2c(cc1=O)CN(Cc1nc(CCOC)no1)CC2 | -3.53 |
| CCN(CC)C(=O)Nc1cc2c(cc1SC)OCCO2 | -6.83 |
| Cc1cnn(C2CN(Cc3ccc4c(c3)OCCO4)C2)c1 | -10.6 |
| FC(F)(F)C1CCCn2c(CNCc3ccsc3)nnc21 (stereo not drawn) | -9.55 |
| O=c1oc(-c2cccs2)nn1CC(O)c1ccccc1 (stereo not drawn) | -13.3 |
| CCOc1ncccc1CNC(=O)N1CCCC1c1ccncc1 (stereo not drawn) | -8.99 |
| CCNC(=O)NC(=O)CSC(C)c1ccccc1F (stereo not drawn) | -9.82 |

| SMILES | cytotoxicity at 70.5 h [%] |
| --- | --- |
| CCOc1cccc(C(C)NCc2ccc(OC)c(OC)c2OC)c1 (stereo not drawn) | 6.82 |
| CCNC(=O)NC(=O)CSC(C)c1c(F)cccc1F (stereo not drawn) | 10.3 |
| CCN(CC)C(=O)CCNC(=O)Cc1nc(-c2ccco2)oc1C | 4.78 |
| N#Cc1cn(CC(=O)NC2CC2)c2ccc(Br)cc2c1=O | -7.46 |
| CCN(CC(=O)NC)C(=O)Cc1nc(-c2ccco2)oc1C | -7.15 |
| CCc1nc(CCNC(=O)Nc2ccc(C(=O)NC)cc2C)cs1 | 13.7 |
| O=C(O)c1ccn(-c2ccccc2NS(=O)(=O)c2ccccc2)n1 | -0.995 |
| Cc1cc(S(=O)(=O)N2CCCc3cc(F)cc(F)c32)sc1C(=O)O | 11.1 |
| O=C(NC1(c2nnn(Cc3ccncc3)n2)CCCC1)c1ccccc1 | -1.85 |
| CSC(C)(C)CNC(=O)NC1CCSCC1 | -6.55 |
| Cc1n[nH]c(C2CN(CC(=O)NCc3ccco3)CCO2)n1 (stereo not drawn) | 15.9 |
| CSCC(=O)N1CCCC1c1noc(C2CC2)n1 (stereo not drawn) | -4.73 |
| O=C(NCCCn1ccnc1)N1CCCC1c1ccncc1 (stereo not drawn) | -1.54 |
| CC(C)(C)OC(=O)NC(C)(C)c1noc(CN2CCCCC2)n1 | -3.07 |
| O=C(CCNS(=O)(=O)c1ccccc1)NCc1ccoc1 | -9.84 |
| CCS(=O)(=O)c1ccc(N2CCC(NC(C)=O)CC2)cc1 | -5.9 |
| COC1CCN(C(=O)c2c(Cl)c3ccccc3n2C)CC1 | -9.88 |
| CCNC(=O)c1cnc(Cc2ccc(F)cc2)s1 | -6.25 |
| COc1cccc(S(=O)(=O)CCN2CCC3(CC2)OCCO3)c1 | -18.5 |
| CCCC(=O)NCc1cc(Br)c(OC)c(OC)c1 | -6.96 |
| Cc1nc2c(c(C)c1CC(=O)Nc1ccc(Cl)cc1)c(=O)[nH]n2C | -3.48 |
| c1cnn(CC2CCCCN2c2ncnc3sccc23)c1 (stereo not drawn) | -6.33 |
| Cc1cnn(CCNCc2ccc(OCc3csc(C)n3)cc2)c1 | -4.31 |

| SMILES | cytotoxicity at 70.5 h [%] |
| --- | --- |
| O=C(NCCc1cccc(O)c1)NC1CCN(c2ccccc2)C1=O (stereo not drawn) | 1.16 |
| O=C(O)c1ccc(F)c(S(=O)(=O)Nc2ccc(-n3cccn3)c(Cl)c2)c1 | -6.87 |
| CCCC(NC(=O)c1ccc(OC)cc1F)c1nnn[nH]1 (stereo not drawn) | -3.7 |
| CCCC(NC(=O)c1cc(C)ccc1C)c1nnn[nH]1 (stereo not drawn) | 13.6 |
| COCC(=O)N1CCC2(CC1)CN(c1ccsc1)C(=O)CO2 | -8.62 |
| O=C(c1ccsc1)N1CCN2C[C@H](OCc3ccccn3)C[C@H]2C1 | -10.1 |
| Cc1cccc(CN2CCn3c(C(=O)N(C)C)cnc3C2)c1 | -4.36 |
| O=C(C1CCOCC1)N1CCC2(CC1)CN(c1ccsc1)C(=O)CO2 | -6.23 |
| Cc1noc(C)c1CN1C[C@@H]2COC[C@@H](CC(=O)N3CCCO3)[C@@H]2C1 | -6.49 |
| Cc1noc(C)c1CN1C[C@@H]2COC[C@H](C(=O)N3CCCO3)[C@@H]2C1 | 31.1 |
| O=C(c1ccco1)N1CCO[C@@H]2CN(c3ccccc3)CC[C@@H]2C1 | 29.2 |
| Cn1cccc1C(=O)NCc1cn2c(n1)CN(CC1CCOC1)CC2 (stereo not drawn) | 17.2 |
| O=C([C@H]1CN(Cc2nccs2)C[C@H]2OCC[C@@H]12)N1CCCC1 | 10.2 |
| Cc1csc(CN2C[C@@H]3COC[C@]3(C(=O)NCc3ccco3)C2)n1 | 14.6 |
| CC(=O)NCC(=O)N1CCN(C)c2ncccc2C1 | -11.3 |
| Cc1cc(C(=O)N2CC[C@H]3[C@@H]2CCC(=O)N3c2ccccc2)no1 | -8.05 |
| CC(C)CCN1CCc2nc(N3CCOCC3)nc(NC(C)C)c2C1 | -16.5 |
| c1cc(CN2CCCn3nnc(COCC4CC4)c3C2)ccn1 | -15.6 |
| CN(C)C(=O)CN1CCC2(CCCN(Cc3ccsc3)C2)C1=O (stereo not drawn) | -15.6 |
| c1cnc(N2CCOCC3(CNCCO3)C2)nc1 (stereo not drawn) | 15.5 |
| Cn1cccc1C(=O)NCc1cn2c(n1)CN(C(=O)c1ccsc1)CC2 | -8.13 |
| CN1CC2(COCCN(c3ncccn3)C2)OCC1=O (stereo not drawn) | -11.5 |
| CN(C)C(=O)c1cnc2n1CCN(Cc1cccc(C#N)c1)C2 | -7.44 |

| SMILES | cytotoxicity at 70.5 h [%] |
| --- | --- |
| COCCN1C(=O)CC[C@@H]2[C@H]1CCN2Cc1cccc(C#N)c1 | -11.2 |
| Cc1cc(CN2C[C@@H]3COC[C@@H](C(=O)N4CCCCO4)[C@@H]3C2)no1 | 20.1 |
| CN(C)[C@@H]1CCN(C(=O)c2cccn2C)[C@H]1Cc1cnn(C)c1 | -11.3 |
| Cc1cc(CN2C[C@@H]3COC[C@H](C(=O)N4CCCCO4)[C@@H]3C2)no1 | -11.3 |
| CN(C)[C@@H]1CCN(C(=O)c2cccc(C#N)c2)[C@H]1Cc1cnn(C)c1 | -8.57 |
| Cc1ccccc1C(=O)N1CC[C@@H](N(C)C)[C@@H]1Cc1cnn(C)c1 | 25.4 |
| CCN1C[C@H]2[C@@H](C1)N(S(=O)(=O)c1ccccc1F)CC[C@H]2OC | -3.89 |
| Cc1noc(C)c1CN1C[C@@H]2COC[C@@H](CC(=O)N3CCCCO3)[C@@H]2C1 | -6.43 |
| Cc1occc1C(=O)N1CCO[C@H]2[C@H](Oc3cccnc3)CC[C@@H]21 | 14.6 |
| O=C(O)CCC(=O)N1CCN(CC2CC2)c2ncccc2C1 | 22.2 |
| O=C(Cc1ccsc1)N1CCN(CC2CC2)c2ncccc2C1 | -14 |
| CN(C)C(=O)CN1CCC2(CCCN(Cc3cccs3)C2)C1=O (stereo not drawn) | -12.9 |
| Cc1occc1C(=O)N1Cc2nccn2CC(CN2CCCC2)C1 (stereo not drawn) | -14.1 |
| CC(C)NC(=O)N1CCN(CC2CC2)c2ncccc2C1 | -15.2 |
| O=C(c1ccc(F)cc1)N1CCN2C[C@H](OCc3cccnc3)C[C@H]2C1 | -11 |
| CO[C@H]1CCN(S(=O)(=O)c2cccnc2)[C@@H]2CN(CC3CC3)C[C@H]12 | -6.81 |
| CCN1C[C@@H]2[C@@H](OC)CCN(S(=O)(=O)c3cccnc3)[C@@H]2C1 | -10.5 |
| CO[C@@H]1CCN(S(=O)(=O)c2cccnc2)[C@@H]2CN(CC3CC3)C[C@@H]21 | -8.38 |
| Cc1ccc(CN2CCOC3(COCCN(C(C)C)C3)C2)o1 (stereo not drawn) | -12.3 |
| Cc1ccc(CN2CCCn3nnc(COCCN(C)C)c3C2)s1 | -16 |
| Cn1cccc1C(=O)NCc1cn2c(n1)CN(Cc1ccccn1)CC2 | -13.2 |
